Data on seven molecules can be found in ChEMBL document CHEMBL1201862, “PubChem BioAssay data set” (2004).

Each structure is given as a SMILES string. Active and inactive are the calls of the source.

Experiment [1] concerns the target Voltage-dependent T-type calcium channel subunit alpha-1H (Homo sapiens, UniProt O95180). Format: functional.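 Further: channel activity triggered by adding a high calcium stimulation buffer.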
The target in experiment [2] is Multidrug resistance protein CDR1 (Candida albicans, UniProt P43071). The experiment is described as follows: CaCDR1 efflux pump inhibitors in yeast, dose response, S. cerevisiae AD1-8u, singleplex, Cherry Pick1 hits (AID 588606). Format: functional.
Experiment [3] concerns HEK293. The experiment is described as follows: HEK cell cytotoxicity by LDH release, dose response, cytotoxicity control for IDE activator project, fluorescence, HEK cells (AID 588440).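 Further: cytotoxicity by LDH release measuring loss of membrane integrity.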 Format: functional, cell-based. The following applies: Homo sapiens. (LDH in the medium is a marker of cell lysis.)
In experiment [4] the test system is HEK293. The experiment is described as follows: optical interference in Abeta FP readout, dose response, artefact control for IDE activator project, biochemical, fluorescence polarization (AID 588442). Format: functional, cell-based. The note with it: Homo sapiens. A general note: In fluorescence polarisation assays a small probe gives low polarisation when free and higher when bound to something large.

Experiment [5] concerns the target T1, Insulin-degrading enzyme (Homo sapiens, UniProt P14735). The experiment is described as follows: activators of endogenous IDE in HEK cells, dose response, cell-based, fluorescence polarization (AID 588439). Type of experiment: functional.
Experiment [6] addresses T1, Insulin-degrading enzyme. Nature of the experiment: activators of recombinant IDE enzyme, dose response, counter-screen for IDE activator project, biochemical, fluorescence polarization (AID 588681). Background: The purpose of a counterscreen is to sort out artefacts and off-target activity.
The target in experiment [7] is Protein disulfide-isomerase (Homo sapiens, UniProt P07237). Nature of the experiment: PDI inhibitors, insulin aggregation turbidity, dose response, biochemical, absorbance, cherry-picked samples (AID 602350). Format: functional.
Protein disulfide-isomerase, sequence (P07237 whole entry): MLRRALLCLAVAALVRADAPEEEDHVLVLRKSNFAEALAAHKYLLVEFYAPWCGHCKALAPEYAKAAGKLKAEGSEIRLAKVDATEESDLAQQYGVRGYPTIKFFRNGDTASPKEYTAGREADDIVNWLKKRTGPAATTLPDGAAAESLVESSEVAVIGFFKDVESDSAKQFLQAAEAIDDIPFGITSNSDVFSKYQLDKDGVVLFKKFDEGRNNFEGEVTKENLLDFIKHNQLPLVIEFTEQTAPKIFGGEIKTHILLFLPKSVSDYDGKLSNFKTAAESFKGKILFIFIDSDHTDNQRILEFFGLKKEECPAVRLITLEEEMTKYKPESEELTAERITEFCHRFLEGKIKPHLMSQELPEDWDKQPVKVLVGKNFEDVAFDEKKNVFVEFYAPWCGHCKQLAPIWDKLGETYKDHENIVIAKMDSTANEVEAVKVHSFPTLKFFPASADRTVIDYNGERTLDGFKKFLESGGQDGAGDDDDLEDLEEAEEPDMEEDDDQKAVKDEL
Experiment [8] is described as follows: polyadenylation inhibitors in yeast reporter, dose response, luminescence, S. cerevisiae SKY197-pL101 (AID 2525). Format: functional, cell-based.
Experiment [9] has as its target Beta-lactamase (Pseudomonas aeruginosa, UniProt Q79MP6).
Experiment [10] in a line: Luminescence Cell-Based Dose Confirmation HTS to Identify Inhibitors of Polyadenylation. Format: functional.
The target in experiment [11] is 72 kDa type IV collagenase (Homo sapiens, UniProt P08253). Nature of the experiment: Dose Response validation of uHTS RPN11 inhibitor hits using a MMP-2 Fluorescence assay. Type of experiment: functional.
The target in experiment [12] is 26S proteasome non-ATPase regulatory subunit 14 (Homo sapiens, UniProt O00487). Nature of the experiment: inhibition of proteasome subunit RPN11 – biochemical, fluorescence polarization, uHTS hits, confirmation (AID 602368). Format: functional.
26S proteasome non-ATPase regulatory subunit 14, sequence (O00487 whole entry): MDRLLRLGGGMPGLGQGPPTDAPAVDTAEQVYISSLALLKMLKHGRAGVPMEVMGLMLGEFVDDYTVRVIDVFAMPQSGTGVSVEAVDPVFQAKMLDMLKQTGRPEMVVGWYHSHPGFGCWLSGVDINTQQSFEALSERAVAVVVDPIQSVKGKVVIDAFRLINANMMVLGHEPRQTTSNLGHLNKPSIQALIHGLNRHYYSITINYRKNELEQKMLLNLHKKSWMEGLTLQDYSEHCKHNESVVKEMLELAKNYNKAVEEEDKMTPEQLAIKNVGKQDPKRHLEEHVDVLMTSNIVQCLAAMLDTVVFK
The target in experiment [13] is Beta-lactamase (Salmonella choleraesuis (strain SC-B67), UniProt Q5J463).
Beta-lactamase (Salmonella choleraesuis (strain SC-B67), UniProt Q5J463), sequence (Q5J463 whole entry): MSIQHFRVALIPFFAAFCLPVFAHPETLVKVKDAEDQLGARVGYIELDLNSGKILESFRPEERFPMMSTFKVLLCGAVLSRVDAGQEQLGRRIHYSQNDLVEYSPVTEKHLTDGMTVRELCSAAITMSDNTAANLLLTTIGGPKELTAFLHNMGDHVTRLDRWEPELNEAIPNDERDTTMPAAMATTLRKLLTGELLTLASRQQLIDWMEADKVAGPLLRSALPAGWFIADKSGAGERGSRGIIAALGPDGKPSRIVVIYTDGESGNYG
Experiment [14] has as its target Prothrombin (Bos taurus, UniProt P00735). Nature of the experiment: thrombin inhibition, dose response, biochemical, fluorescence polarization, uHTS hits (AID 602369). Type of experiment: functional.
Experiment [15] addresses T2, Caspase-3 (Homo sapiens, UniProt P42574).
T2 sequence (P42574 whole entry): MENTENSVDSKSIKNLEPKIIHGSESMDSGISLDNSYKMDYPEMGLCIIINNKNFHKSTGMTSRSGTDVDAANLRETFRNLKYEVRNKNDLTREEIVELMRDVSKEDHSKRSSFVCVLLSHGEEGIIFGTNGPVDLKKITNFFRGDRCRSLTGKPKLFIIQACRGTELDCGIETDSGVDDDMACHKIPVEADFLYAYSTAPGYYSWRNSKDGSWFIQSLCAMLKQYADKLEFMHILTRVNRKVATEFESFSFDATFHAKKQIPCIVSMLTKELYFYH
Nature of the experiment: SAR Analysis of small molecule inhibitors of Sentrin-specific proteases (SENPs) using a Caspase-3 Selectivity assay. [Related pubchem assays (depositor defined):AID2540, AID2599, AID434973, AID489001]. Type of experiment: functional.

Experiment [16] concerns the target T3, Sentrin-specific protease 6 (Homo sapiens, UniProt Q9GZR1).
T3 sequence (Q9GZR1 whole entry): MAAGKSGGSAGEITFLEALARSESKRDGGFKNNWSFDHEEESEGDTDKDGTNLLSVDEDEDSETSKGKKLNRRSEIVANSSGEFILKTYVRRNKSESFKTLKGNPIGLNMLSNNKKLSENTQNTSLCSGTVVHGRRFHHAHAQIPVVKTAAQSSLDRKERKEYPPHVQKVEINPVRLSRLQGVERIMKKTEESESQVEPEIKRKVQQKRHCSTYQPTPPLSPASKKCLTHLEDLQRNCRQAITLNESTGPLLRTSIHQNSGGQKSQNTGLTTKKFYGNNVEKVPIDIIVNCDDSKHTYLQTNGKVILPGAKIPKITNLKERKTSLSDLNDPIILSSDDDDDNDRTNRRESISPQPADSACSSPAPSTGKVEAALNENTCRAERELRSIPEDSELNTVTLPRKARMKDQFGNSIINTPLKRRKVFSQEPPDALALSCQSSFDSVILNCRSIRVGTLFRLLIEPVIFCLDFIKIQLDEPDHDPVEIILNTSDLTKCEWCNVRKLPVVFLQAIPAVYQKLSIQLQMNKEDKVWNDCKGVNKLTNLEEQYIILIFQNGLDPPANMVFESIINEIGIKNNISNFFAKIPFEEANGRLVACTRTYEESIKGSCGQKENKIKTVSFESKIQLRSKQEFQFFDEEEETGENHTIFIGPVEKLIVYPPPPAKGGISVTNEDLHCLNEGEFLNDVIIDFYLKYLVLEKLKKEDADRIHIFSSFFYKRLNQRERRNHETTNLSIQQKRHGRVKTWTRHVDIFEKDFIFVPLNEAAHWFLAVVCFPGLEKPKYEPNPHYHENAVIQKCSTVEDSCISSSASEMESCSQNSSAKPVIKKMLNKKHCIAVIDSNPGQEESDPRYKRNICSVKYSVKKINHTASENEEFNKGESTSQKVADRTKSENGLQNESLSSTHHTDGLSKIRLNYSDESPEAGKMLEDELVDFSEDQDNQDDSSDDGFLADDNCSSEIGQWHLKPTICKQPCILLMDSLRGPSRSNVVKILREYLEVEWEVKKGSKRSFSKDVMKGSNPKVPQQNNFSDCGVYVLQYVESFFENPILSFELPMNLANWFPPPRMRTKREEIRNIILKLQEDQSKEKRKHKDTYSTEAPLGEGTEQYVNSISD
Nature of the experiment: SAR Analysis of small molecule inhibitors of Sentrin-specific protease 6 (SENP6) using a Luminescent assay. [Related pubchem assays (depositor defined):AID2582, AID2599]. Type of experiment: functional.

Experiment [17] concerns the target T4, Sentrin-specific protease 8 (Homo sapiens, UniProt Q96LD8).
T4 sequence (Q96LD8 whole entry): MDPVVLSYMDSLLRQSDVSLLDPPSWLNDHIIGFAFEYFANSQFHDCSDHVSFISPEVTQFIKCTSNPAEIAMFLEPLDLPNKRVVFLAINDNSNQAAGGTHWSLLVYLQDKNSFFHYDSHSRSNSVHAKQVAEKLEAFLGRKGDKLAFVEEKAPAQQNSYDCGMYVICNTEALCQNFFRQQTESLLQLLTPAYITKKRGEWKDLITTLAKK
Nature of the experiment: SENP8 protease inhibitors, SAR follow-up, biochemical, luminescence (AID 504501). Format: functional.

Experiment [18] deals with T5, Sentrin-specific protease 7 (Homo sapiens, UniProt Q9BQF6).
T5 sequence (Q9BQF6 whole entry): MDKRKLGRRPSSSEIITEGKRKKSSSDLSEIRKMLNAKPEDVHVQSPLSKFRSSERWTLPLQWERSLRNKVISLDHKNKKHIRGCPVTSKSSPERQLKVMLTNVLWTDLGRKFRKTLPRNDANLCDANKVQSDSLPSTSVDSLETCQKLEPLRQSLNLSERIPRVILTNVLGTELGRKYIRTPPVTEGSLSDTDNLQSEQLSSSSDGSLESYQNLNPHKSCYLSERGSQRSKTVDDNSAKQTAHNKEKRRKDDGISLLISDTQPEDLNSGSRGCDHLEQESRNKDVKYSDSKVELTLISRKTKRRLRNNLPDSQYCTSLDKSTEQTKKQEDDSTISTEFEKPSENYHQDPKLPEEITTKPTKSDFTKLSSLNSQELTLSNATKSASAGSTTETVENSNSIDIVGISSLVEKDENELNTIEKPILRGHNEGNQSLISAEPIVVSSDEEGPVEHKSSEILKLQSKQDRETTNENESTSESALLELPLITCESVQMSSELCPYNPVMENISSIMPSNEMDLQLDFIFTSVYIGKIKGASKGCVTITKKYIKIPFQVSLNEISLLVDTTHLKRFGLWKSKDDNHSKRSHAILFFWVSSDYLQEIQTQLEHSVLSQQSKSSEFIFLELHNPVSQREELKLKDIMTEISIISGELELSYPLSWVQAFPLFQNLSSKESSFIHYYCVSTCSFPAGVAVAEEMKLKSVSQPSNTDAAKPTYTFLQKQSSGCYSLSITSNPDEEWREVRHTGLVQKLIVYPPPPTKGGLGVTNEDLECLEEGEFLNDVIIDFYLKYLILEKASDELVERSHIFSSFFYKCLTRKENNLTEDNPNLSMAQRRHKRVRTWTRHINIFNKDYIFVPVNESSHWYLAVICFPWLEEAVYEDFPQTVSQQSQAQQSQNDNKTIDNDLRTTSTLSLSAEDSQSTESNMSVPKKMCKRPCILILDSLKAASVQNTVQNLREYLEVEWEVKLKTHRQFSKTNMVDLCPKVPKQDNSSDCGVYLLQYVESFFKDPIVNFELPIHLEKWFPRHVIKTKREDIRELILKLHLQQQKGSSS
Nature of the experiment: SENP7 protease inhibitors, SAR follow-up, biochemical, luminescence (AID 504497). Type of experiment: functional.

Experiment [19] in a line: viability loss in Mcl1-dependent HMC-1-8 cells, dose response, selectivity assay for A1 inhibitor project, cell-based, luminescence, dry powder (AID 504415). The note with it: Homo sapiens. Format: functional.
Experiment [20] addresses DNA dC->dU-editing enzyme APOBEC-3G (Homo sapiens, UniProt Q9HC16). The experiment is described as follows: APOBEC3G deaminase inhibitors, SAR follow-up, biochemical, fluorescence, single-stranded DNA substrate (AID 602136). Format: functional. The following applies: read-out: IC50_Mean.
Experiment [21] concerns the target DNA dC->dU-editing enzyme APOBEC-3A (Homo sapiens, UniProt P31941). The experiment is described as follows: SAR analysis of small molecule inhibitors of APOBEC3A DNA Deaminase via a fluorescence-based single-stranded DNA deaminase assay. Type of experiment: functional. The following applies: read-out: IC50_Mean.

T1 sequence (P14735 whole entry): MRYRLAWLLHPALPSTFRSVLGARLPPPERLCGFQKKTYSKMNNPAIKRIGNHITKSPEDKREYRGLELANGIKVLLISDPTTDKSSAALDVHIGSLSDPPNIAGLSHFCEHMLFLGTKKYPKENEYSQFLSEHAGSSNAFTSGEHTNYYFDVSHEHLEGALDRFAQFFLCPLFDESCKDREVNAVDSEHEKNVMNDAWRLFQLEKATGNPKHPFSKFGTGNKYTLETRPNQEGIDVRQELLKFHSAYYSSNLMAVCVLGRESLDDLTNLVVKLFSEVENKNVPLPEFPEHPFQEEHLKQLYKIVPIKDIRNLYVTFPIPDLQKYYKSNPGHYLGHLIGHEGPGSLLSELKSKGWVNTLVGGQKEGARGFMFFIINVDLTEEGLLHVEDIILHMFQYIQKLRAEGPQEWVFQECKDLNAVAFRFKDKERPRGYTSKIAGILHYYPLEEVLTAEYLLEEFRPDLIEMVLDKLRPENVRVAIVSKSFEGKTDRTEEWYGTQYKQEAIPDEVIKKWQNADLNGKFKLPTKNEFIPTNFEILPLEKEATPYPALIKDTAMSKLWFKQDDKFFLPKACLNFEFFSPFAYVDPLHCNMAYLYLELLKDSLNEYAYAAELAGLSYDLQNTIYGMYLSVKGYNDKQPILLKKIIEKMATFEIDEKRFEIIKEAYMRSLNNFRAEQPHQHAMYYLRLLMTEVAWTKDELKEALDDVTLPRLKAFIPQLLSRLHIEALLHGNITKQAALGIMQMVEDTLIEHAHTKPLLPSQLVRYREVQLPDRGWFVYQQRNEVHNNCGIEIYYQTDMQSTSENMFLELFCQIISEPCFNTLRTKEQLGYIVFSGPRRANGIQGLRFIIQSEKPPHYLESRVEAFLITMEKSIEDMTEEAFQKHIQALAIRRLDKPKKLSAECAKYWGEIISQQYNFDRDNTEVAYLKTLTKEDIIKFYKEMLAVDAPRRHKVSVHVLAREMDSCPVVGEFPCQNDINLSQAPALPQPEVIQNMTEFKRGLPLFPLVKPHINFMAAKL
DNA dC->dU-editing enzyme APOBEC-3G, sequence (Q9HC16 whole entry): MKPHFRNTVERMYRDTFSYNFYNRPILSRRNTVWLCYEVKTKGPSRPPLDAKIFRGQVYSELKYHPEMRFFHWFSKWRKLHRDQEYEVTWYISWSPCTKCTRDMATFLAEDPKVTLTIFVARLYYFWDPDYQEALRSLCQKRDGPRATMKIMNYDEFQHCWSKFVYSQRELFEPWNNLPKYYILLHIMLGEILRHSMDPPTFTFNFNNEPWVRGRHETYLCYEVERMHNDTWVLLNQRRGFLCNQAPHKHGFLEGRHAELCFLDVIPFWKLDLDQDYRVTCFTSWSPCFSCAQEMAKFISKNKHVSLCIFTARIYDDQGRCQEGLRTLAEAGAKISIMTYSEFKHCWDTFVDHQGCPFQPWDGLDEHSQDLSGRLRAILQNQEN
DNA dC->dU-editing enzyme APOBEC-3A, sequence (P31941 whole entry): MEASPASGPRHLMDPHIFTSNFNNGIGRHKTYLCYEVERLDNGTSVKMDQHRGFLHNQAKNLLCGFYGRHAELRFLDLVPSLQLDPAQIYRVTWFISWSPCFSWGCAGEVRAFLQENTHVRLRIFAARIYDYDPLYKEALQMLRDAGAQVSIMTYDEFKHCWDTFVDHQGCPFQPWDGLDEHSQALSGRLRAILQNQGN
Voltage-dependent T-type calcium channel subunit alpha-1H, sequence (O95180 whole entry): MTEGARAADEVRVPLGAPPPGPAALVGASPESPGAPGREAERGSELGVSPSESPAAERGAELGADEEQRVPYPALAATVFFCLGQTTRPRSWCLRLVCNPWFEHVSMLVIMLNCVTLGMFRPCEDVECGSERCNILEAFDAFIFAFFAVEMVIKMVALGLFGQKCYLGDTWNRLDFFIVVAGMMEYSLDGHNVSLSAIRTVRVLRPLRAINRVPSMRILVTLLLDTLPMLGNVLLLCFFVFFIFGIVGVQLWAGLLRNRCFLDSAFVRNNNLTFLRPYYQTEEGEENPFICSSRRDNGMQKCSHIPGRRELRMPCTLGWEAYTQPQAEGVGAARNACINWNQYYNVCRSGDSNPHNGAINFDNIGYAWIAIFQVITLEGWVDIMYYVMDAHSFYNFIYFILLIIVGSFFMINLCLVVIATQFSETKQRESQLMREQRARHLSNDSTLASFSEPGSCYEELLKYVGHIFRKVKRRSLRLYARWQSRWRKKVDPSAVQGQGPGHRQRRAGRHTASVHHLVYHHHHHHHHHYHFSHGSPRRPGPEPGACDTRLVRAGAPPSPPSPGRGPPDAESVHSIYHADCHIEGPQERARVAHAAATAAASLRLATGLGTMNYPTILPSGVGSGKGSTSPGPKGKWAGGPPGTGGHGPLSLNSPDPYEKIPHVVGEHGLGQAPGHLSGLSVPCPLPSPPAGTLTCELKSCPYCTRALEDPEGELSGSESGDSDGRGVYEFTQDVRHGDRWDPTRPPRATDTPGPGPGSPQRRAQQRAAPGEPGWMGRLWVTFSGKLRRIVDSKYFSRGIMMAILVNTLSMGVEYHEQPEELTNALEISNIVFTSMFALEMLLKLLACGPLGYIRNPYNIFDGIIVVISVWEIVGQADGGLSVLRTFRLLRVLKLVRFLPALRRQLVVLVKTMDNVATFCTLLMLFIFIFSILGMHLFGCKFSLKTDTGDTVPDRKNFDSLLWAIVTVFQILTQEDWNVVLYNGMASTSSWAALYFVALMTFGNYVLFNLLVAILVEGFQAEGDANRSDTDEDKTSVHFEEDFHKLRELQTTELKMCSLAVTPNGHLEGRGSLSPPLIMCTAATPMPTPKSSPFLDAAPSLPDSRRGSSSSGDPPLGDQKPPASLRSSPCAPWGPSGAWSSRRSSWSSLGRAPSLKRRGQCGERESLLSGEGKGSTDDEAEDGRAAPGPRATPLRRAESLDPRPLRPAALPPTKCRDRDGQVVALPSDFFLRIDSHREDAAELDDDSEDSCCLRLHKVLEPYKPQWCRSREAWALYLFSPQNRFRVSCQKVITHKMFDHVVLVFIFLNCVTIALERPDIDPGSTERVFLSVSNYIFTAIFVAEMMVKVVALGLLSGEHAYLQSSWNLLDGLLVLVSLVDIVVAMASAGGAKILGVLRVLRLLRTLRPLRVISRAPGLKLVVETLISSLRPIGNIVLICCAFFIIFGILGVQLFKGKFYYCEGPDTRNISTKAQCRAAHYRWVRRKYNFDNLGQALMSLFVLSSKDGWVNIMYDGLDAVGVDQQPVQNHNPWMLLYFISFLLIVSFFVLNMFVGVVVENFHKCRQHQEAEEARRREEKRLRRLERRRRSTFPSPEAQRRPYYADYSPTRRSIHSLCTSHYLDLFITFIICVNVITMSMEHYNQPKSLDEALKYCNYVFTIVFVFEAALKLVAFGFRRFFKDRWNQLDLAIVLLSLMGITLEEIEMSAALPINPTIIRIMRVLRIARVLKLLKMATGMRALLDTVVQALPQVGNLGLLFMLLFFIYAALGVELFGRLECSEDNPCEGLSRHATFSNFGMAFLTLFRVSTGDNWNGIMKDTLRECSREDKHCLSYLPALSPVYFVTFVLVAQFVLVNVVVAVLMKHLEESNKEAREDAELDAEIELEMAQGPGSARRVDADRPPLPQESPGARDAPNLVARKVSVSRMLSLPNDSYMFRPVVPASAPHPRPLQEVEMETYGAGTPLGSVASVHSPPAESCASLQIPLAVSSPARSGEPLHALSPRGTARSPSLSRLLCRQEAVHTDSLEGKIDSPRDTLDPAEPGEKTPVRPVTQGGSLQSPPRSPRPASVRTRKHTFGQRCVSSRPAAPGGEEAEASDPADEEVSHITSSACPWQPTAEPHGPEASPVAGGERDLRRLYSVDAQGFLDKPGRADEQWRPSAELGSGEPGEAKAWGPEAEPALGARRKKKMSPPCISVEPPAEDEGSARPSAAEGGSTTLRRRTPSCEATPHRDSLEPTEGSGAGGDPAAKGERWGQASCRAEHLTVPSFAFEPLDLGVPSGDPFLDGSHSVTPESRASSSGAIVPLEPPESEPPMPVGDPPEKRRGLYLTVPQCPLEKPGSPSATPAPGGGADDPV

For `O=C(CSc1nnc(Cc2cccs2)n1Cc1ccco1)Nc1ccc(Br)cc1`, the EC50 (in general, the concentration that produces a half-maximal response) in experiment [1] is 3.12 µM (active); in [2], 0.009 µM (active).

`O=C(O)c1ccccc1Nc1ccc([N+](=O)[O-])c2nonc12`: in [3], the IC50 was > 89.2 µM (inactive). Further, the EC50 in experiment [4], in experiment [5] and in [6] was > 54.7 µM (inactive) throughout.

For the molecule `CCOC(=O)c1c(CNCCN(CC)CC)n(C)c2cc(Br)c(OC)cc12`, the AC50 (in general, the midpoint of the concentration-response curve, whichever way the signal moves) in experiment [7] is 0.376 µM (active).

Regarding `COc1cc(/C=C2/SC(=S)N(Cc3ccccc3)C2=O)cc(OC)c1O`, the EC50 in [8] was 31.9 µM (active); in [10] it was 27.8 µM (inconclusive). In addition, the IC50 in [9] is > 59.6 µM (inactive); in [11], > 100 µM (inactive); in [12], 2.36 µM (active); in experiment [13] it was > 59.6 µM (inactive); in experiment [14], 2.9 µM (active).

On to `CCC(=O)c1ccc(OCC(=O)N(c2ccccc2)c2nc(-c3ccccc3)ns2)cc1`, for which the IC50 in experiment [15] was > 99 µM (inactive); in [16] it was 65.1 µM (active); in [17], 96.7 µM (active); in experiment [18], 32 µM (active).

As to `O=[N+]([O-])c1cnc2ccccc2c1Sc1ccccc1`, the half-maximal activity concentration (AC50) in experiment [19] was 39.2 µM (active).

In the case of `CC(=O)c1c(C)[nH]c(C(=O)CN(C)CC(=O)Nc2ccc(F)c(F)c2F)c1C`, the IC50 in experiment [20] and in [21] was > 99 µM (inactive) in each case.
